Results on 28 compounds are retold here after patent US20250313548A1 (Actio Biosciences, Inc., priority 2023, published 2025).

pIC50: −log10 of the molar value.

human, KCNT1, sequence (Q5JUK3 whole entry): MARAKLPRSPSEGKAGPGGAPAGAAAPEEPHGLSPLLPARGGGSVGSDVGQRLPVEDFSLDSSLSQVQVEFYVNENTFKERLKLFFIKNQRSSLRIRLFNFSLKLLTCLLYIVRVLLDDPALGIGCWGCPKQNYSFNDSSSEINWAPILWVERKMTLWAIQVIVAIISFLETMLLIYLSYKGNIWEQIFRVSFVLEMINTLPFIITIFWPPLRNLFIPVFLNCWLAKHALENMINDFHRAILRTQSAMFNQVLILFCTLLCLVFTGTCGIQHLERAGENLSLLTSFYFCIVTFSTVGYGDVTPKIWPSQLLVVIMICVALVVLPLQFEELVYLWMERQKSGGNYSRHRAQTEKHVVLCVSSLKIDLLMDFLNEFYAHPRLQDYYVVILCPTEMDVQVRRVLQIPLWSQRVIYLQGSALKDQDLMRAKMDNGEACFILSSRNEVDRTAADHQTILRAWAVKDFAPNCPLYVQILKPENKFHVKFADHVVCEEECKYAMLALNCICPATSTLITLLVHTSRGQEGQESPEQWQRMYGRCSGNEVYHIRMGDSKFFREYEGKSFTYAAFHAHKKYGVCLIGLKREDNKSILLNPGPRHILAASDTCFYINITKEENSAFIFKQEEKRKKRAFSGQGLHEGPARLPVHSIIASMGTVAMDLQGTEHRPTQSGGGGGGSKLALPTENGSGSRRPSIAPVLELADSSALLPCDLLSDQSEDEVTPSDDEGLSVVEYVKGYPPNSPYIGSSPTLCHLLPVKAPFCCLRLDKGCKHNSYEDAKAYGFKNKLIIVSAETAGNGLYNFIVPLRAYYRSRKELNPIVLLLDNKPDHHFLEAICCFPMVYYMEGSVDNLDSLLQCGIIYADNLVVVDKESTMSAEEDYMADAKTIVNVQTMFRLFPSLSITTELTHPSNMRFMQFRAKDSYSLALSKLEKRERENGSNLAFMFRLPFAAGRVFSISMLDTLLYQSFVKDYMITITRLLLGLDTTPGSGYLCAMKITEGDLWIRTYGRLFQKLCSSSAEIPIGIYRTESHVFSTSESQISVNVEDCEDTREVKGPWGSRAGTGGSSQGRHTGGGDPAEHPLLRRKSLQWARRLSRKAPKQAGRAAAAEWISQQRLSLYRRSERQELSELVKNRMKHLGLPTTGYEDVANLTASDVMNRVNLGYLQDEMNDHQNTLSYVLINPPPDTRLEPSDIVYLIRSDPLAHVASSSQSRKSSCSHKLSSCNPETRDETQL

This assay deals with human, KCNT1 (Homo sapiens (Human), UniProt Q5JUK3). Description: FLIPR Tl/K Flux Assay. Format: cell-based. The following applies: HEK293 cells stably expressing human KCNT1; Tl+ flux stimulated with EC80 of agonist Loxapine. The method in brief:
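HEK293 cells stably expressing human KCNT1 were loaded with FLIPR potassium dye in HEPES/HBSS pH 7.4 with 5 mM probenecid, 1 h at 25 °C, then given test compound for 30 min at 25 °C. Tl+ flux was triggered with chloride-free buffer containing Tl+ and EC80 loxapine and read 160 s. IC50 came from Hill fits of % inhibition.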
One may read the pIC50 as the negative decadic logarithm of the IC50, by convention in mol/L. Low values mean a large IC50, high ones a small IC50. For `O=C(NC1CCCc2nn(-c3ccnc(C(F)(F)F)c3)cc21)c1ccccc1` (racemic) [Compound I-13, (rac)-N-(2-(2-(Trifluoromethyl)pyridin-4-yl)-4,5,6,7-tetrahydro-2H-indazol-4-yl)benzamide], the pIC50 is above 6.60. The compound `Cn1nc(C(F)(F)F)cc1C(=O)N[C@H]1CCCc2oc(-c3cc(C4CC4)ncc3F)nc21` [Compound I-217a, (S)-N-(2-(2-Cyclopropyl-5-fluoropyridin-4-yl)-4,5,6,7-tetrahydrobenzo[d]oxazol-4-yl)-1-methyl-3-(trifluoromethyl)-1H-pyrazole-5-carboxamide] showed a pIC50 above 6.60. Regarding `COc1cc(-c2cc3n(n2)CCC[C@@H]3NC(=O)c2cc(C(F)(F)F)nn2C)cc(C)n1` [Compound I-431a], the pIC50 is above 6.60. Take `O=C(N[C@H]1CCCc2nc(-c3ccnc(C4CC4)c3)oc21)c1ccnc(OC(F)(F)F)c1` [Compound I-169a, (S)-N-(2-(2-Cyclopropylpyridin-4-yl)-4,5,6,7-tetrahydrobenzo[d]oxazol-7-yl)-2-(trifluoromethoxy)isonicotinamide]: the negative logarithm of the IC50 (pIC50) was above 6.60. For the compound `COc1cc(C(=O)N[C@H]2CCCc3oc(-c4ccnc(C(F)(F)F)c4)nc32)ccn1` [Compound I-299a], the negative logarithm of the IC50 (pIC50) is above 6.60. The compound `O=C(N[C@H]1CCCn2nc(-c3ccnc(C4CC4)c3)cc21)c1ccnc(C(F)(F)F)c1` [Compound I-496a, (S)-N-(2-(2-Cyclopropylpyridin-4-yl)-4,5,6,7-tetrahydropyrazolo[1,5-a]pyridin-4-yl)-2-(trifluoromethyl)isonicotinamide] showed a pIC50 above 6.60. Turning to `CS(=O)(=O)c1cccc(C(=O)N[C@H]2CCc3nn(-c4ccnc(C(F)(F)F)c4)cc32)c1` [Compound I-395a], the pIC50 is below 6.00. The compound `N#Cc1cccc(C(=O)N[C@H]2CCn3nc(-c4ccnc(C5CC5)c4)cc32)c1` [Compound I-310a, (S)-3-Cyano-N-(2-(2-cyclopropylpyridin-4-yl)-5,6-dihydro-4H-pyrrolo[1,2-b]pyrazol-4-yl)benzamide] gave a negative-log IC50 (pIC50) above 6.60.

`N#Cc1cccc(C(=O)N[C@@H]2CCCCc3oc(-c4ccnc(C(F)(F)F)c4)nc32)c1` [Compound I-160b, (R)-3-cyano-N-(2-(2-(trifluoromethyl)pyridin-4-yl)-5,6,7,8-tetrahydro-4H-cyclohepta[d]oxazol-4-yl)benzamide] showed a negative logarithm of the IC50 (pIC50) above 6.60. With `Cn1nc(C(F)(F)F)cc1C(=O)NC1CCCc2nn(-c3ccn4nccc4c3)cc21` (racemic) [Compound I-38, (rac)-1-Methyl-N-(2-(pyrazolo[1,5-a]pyridin-5-yl)-4,5,6,7-tetrahydro-2H-indazol-4-yl)-3-(trifluoromethyl)-1H-pyrazole-5-carboxamide], the pIC50 is below 6.00. Compound `N#Cc1cc(OC(F)(F)F)cc(C(=O)N[C@H]2CCCn3nc(-c4ccnc(C(F)(F)F)c4)cc32)c1` [Compound I-404a] had a pIC50 above 6.60. For the compound `Cc1cnc(C(F)(F)F)cc1-c1cc2n(n1)CC[C@H]2NC(=O)c1cc(C(F)(F)F)nn1C` [Compound I-472b], the pIC50 was below 6.00. For the compound `Cn1nc(C#N)cc1C(=O)N[C@H]1CCCc2nn(-c3ccnc(C(F)(F)F)c3)cc21` [Compound I-113a], the pIC50 was 6.30 to 6.60. The figure for `O=C(N[C@H]1CCc2nn(-c3ccnc(C(F)(F)F)c3)cc21)c1cc(F)cc(Cl)c1` [Compound I-396a] is above 6.60. The compound `COc1cc(-c2nc3c(o2)[C@@H](NC(=O)c2cccc(OC(F)(F)F)c2)CCC3)c(Cl)cn1` [Compound I-164a, (S)-N-(2-(5-Chloro-2-methoxypyridin-4-yl)-4,5,6,7-tetrahydrobenzo[d]oxazol-7-yl)-3-(trifluoromethoxy)benzamide] gave a pIC50 above 6.60. In turn, `CCc1cc(C#N)cc(C(=O)N[C@H]2CCCn3nc(-c4ccnc(C(F)(F)F)c4)cc32)c1` [Compound I-245a, (S)-3-Cyano-5-ethyl-N-(2-(2-(trifluoromethyl)pyridin-4-yl)-4,5,6,7-tetrahydropyrazolo[1,5-a]pyridin-4-yl)benzamide] had a pIC50 above 6.60.

As for `COc1cc(-c2cc3n(n2)CCC[C@@H]3NC(=O)c2cc(F)cc(C#N)c2)ccn1` [Compound I-313a, (S)-3-Cyano-5-fluoro-N-(2-(2-methoxypyridin-4-yl)-4,5,6,7-tetrahydropyrazolo[1,5-a]pyridin-4-yl)benzamide], the negative-log IC50 (pIC50) is above 6.60. Compound `O=C(N[C@H]1CCCn2nc(-c3cc(C(F)(F)F)ncc3F)cc21)c1cnc2ccccc2n1` [Compound I-195a, (S)-N-(2-(5-Fluoro-2-(trifluoromethyl)pyridin-4-yl)-4,5,6,7-tetrahydropyrazolo[1,5-a]pyridin-4-yl)quinoxaline-2-carboxamide] showed a pIC50 above 6.60.

In turn, `Cc1cc(Cl)cc(C(=O)N[C@@H]2CCc3nn(-c4ccnc(C(F)(F)F)c4)cc32)c1` [Compound I-98b] gave a negative-log IC50 (pIC50) below 6.00. `Cn1nc(C(F)(F)F)cc1C(=O)N[C@@H]1CCc2nn(-c3ccnc(C(F)(F)F)c3)cc21` [Compound I-1b, (R)-1-Methyl-3-(trifluoromethyl)-N-(2-(2-(trifluoromethyl)pyridin-4-yl)-2,4,5,6-tetrahydrocyclopenta[c]pyrazol-4-yl)-1H-pyrazole-5-carboxamide] had a negative logarithm of the IC50 (pIC50) below 6.00.

As for `Cn1nc(C(F)(F)F)cc1C(=O)NC1CCCc2nn(-c3ccnc(C(F)(F)F)c3)cc21` (racemic) [Compound I-4, (rac)-1-Methyl-3-(trifluoromethyl)-N-(2-(2-(trifluoromethyl)pyridin-4-yl)-4,5,6,7-tetrahydro-2H-indazol-4-yl)-1H-pyrazole-5-carboxamide], the pIC50 was above 6.60. For the compound `Cc1nc(C(F)(F)F)oc1C(=O)N[C@H]1CCCc2cnc(-c3ccnc(C(F)(F)F)c3)cc21` (single isomer, unassigned) [I-271*], the pIC50 was 6.00 to 6.30. Consider `Cn1nc(C(F)(F)F)cc1C(=O)NC1CCCc2nn(-c3ccn4ccnc4c3)cc21` (racemic) [Compound I-34, (rac)-N-(2-(Imidazo[1,2-a]pyridin-7-yl)-4,5,6,7-tetrahydro-2H-indazol-4-yl)-1-methyl-3-(trifluoromethyl)-1H-pyrazole-5-carboxamide], for which the pIC50 is below 6.00. For the compound `COc1cc(-n2cc3c(n2)CCCC[C@H]3NC(=O)c2cccc(C)c2)ccn1` [Compound I-376b], the pIC50 is below 6.00. For `COc1cc(-c2nc3c(o2)[C@@H](NC(=O)c2cccc(C(F)(F)F)c2)CCC3)c(F)cn1` [Compound I-177a, (S)-N-(2-(5-Fluoro-2-methoxypyridin-4-yl)-4,5,6,7-tetrahydrobenzo[d]oxazol-7-yl)-3-(trifluoromethyl)benzamide], the negative logarithm of the IC50 (pIC50) was above 6.60. Compound `Cn1nc(C(F)(F)F)cc1C(=O)N[C@@H]1CCc2nn(-c3ccnc(OC(F)(F)F)c3)cc21` [Compound I-73b] showed a pIC50 of 6.00 to 6.30.

The compound `Cc1cc(C(=O)N[C@H]2CCCn3nc(-c4ccnc(C(F)(F)F)c4)cc32)cn(C)c1=O` [Compound I-397a] had a negative logarithm of the IC50 (pIC50) below 6.00. Turning to `O=C(N[C@H]1CCc2nn(-c3ccnc(C(F)(F)F)c3)cc21)C12CC(C(F)(F)F)(C1)C2` [Compound I-553a, (S)-3-(Trifluoromethyl)-N-(2-(2-(trifluoromethyl)pyridin-4-yl)-2,4,5,6-tetrahydrocyclopenta[c]pyrazol-4-yl)bicyclo[1.1.1]pentane-1-carboxamide], the negative-log IC50 (pIC50) is above 6.60.
